This is an account of results in patent US20070004720A1, “Use of tyrosine kinase inhibitors for the treatment of inflammatory processes” (priority 2003, published 2007).

Molecules are shown by their SMILES.

In the first assay the test system is cigarette smoke-induced influx of neutrophilic granulocytes into the lung tissue. The experiment in a line: Inhibition of the smoke-induced accumulation of granulocytes in the lung tissue (MPO activity). The conditions noted are these: Rattus norvegicus; male Sprague-Dawley rats, 5 days cigarette smoke exposure, intratracheal dose daily 30 min before smoke, lung tissue MPO, linear regression; read-out: ID50 (dosage which led to a 50% inhibition of the MPO activity). Type of assay: in vivo, rats (strain: Sprague-Dawley). The source says: Inhibition of the Smoke-Induced Accumulation of Granulocytes in the Lung Tissue Lung indications: Inhibition of the cigarette smoke-induced influx of neutrophilic granulocytes into the lung tissue by the above-mentioned EGF-receptor kinase inhibitor. Male rats (strain: Sprague-Dawley) weighing from 250-300 g were exposed for 5 days to the smoke from 8 cigarettes per day. The animals in the group treated with compound A, anaesthetised with isofluran, were given an intratracheal dose of 0.03 or 0.1 mg/kg of compound A in a volume of 0.05 ml each day 30 min before the start of the exposure to smoke. On the last day of the test the animals were killed 4 hours after the last exposure to smoke and the lung tissue was removed. A sample of 70-200 mg was taken from each lung and placed in a test tube prepared with 1 ml of 0.5% hexadecyltrimethylammonium bromide. The samples were homogenised for 15 sec using an Ultraturrax. The homogenised samples were centrifuged at 15700 g in an Eppendorf bench centrifuge for 5 min at ambient temperature. […] of the supernatant was removed and mixed with […] of phosphate buffer (50 mmol/l) containing 0.197 mg/ml of O-dianisidine dihydrochloride. After 10 minutes' incubation at ambient temperature the absorption was measured with a spectral photometer at a wavelength of 450 nm. The dosage which led to a 50% inhibition of the MPO activity (=ID50) was determined by linear regression. Exposure to cigarette smoke in rats led to an influx of neutrophilic granulocytes into the lung tissue, measured by the content of myeloperoxidase in the tissues, which is specific for neutrophilic granulocytes.
Consider `COc1cc2ncnc(Nc3ccc(F)c(Cl)c3)c2cc1OC1CCN(C(=O)N2CCOCC2)CC1` [A, 4-[(3-chloro-4-fluoro-phenyl)amino]-6-{1-[(morpholin-4-yl)carbonyl]-piperidin-4-yloxy}-7-methoxy-quinazoline], for which the ED50 worked out at 0.1 mg/kg.
For `COCC(=O)N1CCC(Oc2cc3c(Nc4ccc(F)c(Cl)c4)ncnc3cc2OC)CC1` [B, 4-[(3-chloro-4-fluoro-phenyl)amino]-6-{1-[(methoxymethyl)carbonyl]-piperidin-4-yloxy}-7-methoxy-quinazoline], the ED50 was 0.01 mg/kg.
On the same count and under the same terms, for `COc1cc2ncnc(Nc3ccc(F)c(Cl)c3)c2cc1OC1CCN(CCNC(C)=O)CC1` [C, 4-[(3-chloro-4-fluoro-phenyl)amino]-6-[1-(2-acetylamino-ethyl)-piperidin-4-yloxy]-7-methoxy-quinazoline] the value was 0.03 mg/kg.
On the same count and under the same terms, for `COc1cc2ncnc(Nc3ccc(F)c(Cl)c3)c2cc1O[C@H]1CC[C@@H](N(C)C(=O)C2CCOCC2)CC1` [D, 4-[(3-chloro-4-fluoro-phenyl)amino]-6-(cis-4-{N-[(tetrahydropyran-4-yl)carbonyl]-N-methyl-amino}-cyclohexan-1-yloxy)-7-methoxy-quinazoline] the value was 0.02 mg/kg; for `COc1cc2ncnc(Nc3ccc(F)c(Cl)c3)c2cc1O[C@H]1CC[C@@H](N(C)S(=O)(=O)N2CCOCC2)CC1` [E, 4-[(3-chloro-4-fluoro-phenyl)amino]-6-(cis-4-{N-[(morpholin-4-yl)sulphonyl]-N-methyl-amino}-cyclohexan-1-yloxy)-7-methoxy-quinazoline], 0.4 mg/kg; for `COc1cc2ncnc(Nc3ccc(F)c(Cl)c3)c2cc1O[C@H]1CC[C@@H](NC(C)=O)CC1` [F, 4-[(3-chloro-4-fluoro-phenyl)amino]-6-(cis-4-acetylamino-cyclohexan-1-yloxy)-7-methoxy-quinazoline], 0.015 mg/kg.
In the case of `C#Cc1cccc(Nc2ncnc3cc(OC)c(OC4CCN(C(=O)OC(C)(C)C)CC4)cc23)c1` [G, 4-[(3-ethynyl-phenyl)amino]-6-[1-(tert.-butyloxycarbonyl)-piperidin-4-yloxy]-7-methoxy-quinazoline], the ED50 was 0.01 mg/kg.
Still for that read-out and setting: the result for `COc1cc2ncnc(Nc3ccc(F)c(Cl)c3)c2cc1O[C@H]1CC[C@@H](N(C)C(=O)N2CCCCC2)CC1` [H, 4-[(3-chloro-4-fluoro-phenyl)amino]-6-(cis-4-{N-[(piperidin-1-yl)carbonyl]-N-methyl-amino}-cyclohexan-1-yloxy)-7-methoxy-quinazoline] reads 0.15 mg/kg; that for `COc1cc2ncnc(Nc3ccc(F)c(Cl)c3)c2cc1O[C@H]1CC[C@@H](N(C)C(=O)N2CCN(C)CC2)CC1` [I, 4-[(3-chloro-4-fluoro-phenyl)amino]-6-(cis-4-{N-[(4-methyl-piperazin-1-yl)carbonyl]-N-methyl-amino}-cyclohexan-1-yloxy)-7-methoxy-quinazoline], 0.15 mg/kg; that for `COc1cc2ncnc(Nc3ccc(F)c(Cl)c3)c2cc1O[C@H]1CC[C@@H](NC(=O)N2CCOCC2)CC1` [K, 4-[(3-chloro-4-fluoro-phenyl)amino]-6-{cis-4-[(morpholin-4-yl)carbonylamino]-cyclohexan-1-yloxy}-7-methoxy-quinazoline], 0.13 mg/kg.
The same measure, in the same setting: for `COCCOc1cc2ncnc(Nc3ccc(F)c(Cl)c3)c2cc1OC1CCN(C(=O)N2CCOCC2)CC1` [L, 4-[(3-chloro-4-fluoro-phenyl)amino]-6-{1-[(morpholin-4-yl)carbonyl]-piperidin-4-yloxy}-7-(2-methoxy-ethoxy)-quinazoline] the value was 0.4 mg/kg; for `C#Cc1cccc(Nc2ncnc3cc(OC)c(OC4CCN(C)CC4)cc23)c1` [M, 4-[(3-ethynyl-phenyl)amino]-6-(1-methyl-piperidin-4-yloxy)-7-methoxy-quinazoline], 0.07 mg/kg.

Still in this assay, the particulars now being: rats, intratracheal 0.03 or 0.1 mg/kg daily, 5 days smoke exposure, myeloperoxidase content of lung tissue.
Take `COc1cc2ncnc(Nc3ccc(F)c(Cl)c3)c2cc1OC1CCN(C(=O)N2CCOCC2)CC1` [A, 4-[(3-chloro-4-fluoro-phenyl)amino]-6-{1-[(morpholin-4-yl)carbonyl]-piperidin-4-yloxy}-7-methoxy-quinazoline]: the “inhibition of the smoke-induced accumulation of granulocytes” value is “significant (p<0.005) inhibition”.
